The test system of assay [1] is TbTryR (recombinant T. b. brucei trypanothione reductase).
The target of assay [2] is T1, TcTryR (recombinant T. cruzi trypanothione reductase) (Trypanosoma cruzi, UniProt P28593).
T1 construct: made in house
Briefly: 412 nm DTNB-coupled trypanothione reductase assay (IC50, Km). The following applies: 412 nm assay, T(S)2 at S = Km (10.4 μM), weighted mean of three occasions. In kind it is biochemical. The protocol:
Assay plates were prepared using a Precision2000 liquid handler (Bio-Tek) with a final DMSO concentration of 1% in all wells. Plates contained a 10-point serial dilution (2-fold or 3-fold dilutions) across columns 2–11 with a top concentration of 100 μM or 200 μM. […] Column 1 contained full signal controls (no inhibitor) and column 12 contained background controls (no enzyme). […] Z′ figures were calculated from the full signal and background controls.

For assay [3], the target named is T2, TbTryR (recombinant T. b. brucei trypanothione reductase) (Trypanosoma brucei brucei, UniProt Q389T8). Briefly: biochemical.
T2 sequence (Q389T8 entry or part of it): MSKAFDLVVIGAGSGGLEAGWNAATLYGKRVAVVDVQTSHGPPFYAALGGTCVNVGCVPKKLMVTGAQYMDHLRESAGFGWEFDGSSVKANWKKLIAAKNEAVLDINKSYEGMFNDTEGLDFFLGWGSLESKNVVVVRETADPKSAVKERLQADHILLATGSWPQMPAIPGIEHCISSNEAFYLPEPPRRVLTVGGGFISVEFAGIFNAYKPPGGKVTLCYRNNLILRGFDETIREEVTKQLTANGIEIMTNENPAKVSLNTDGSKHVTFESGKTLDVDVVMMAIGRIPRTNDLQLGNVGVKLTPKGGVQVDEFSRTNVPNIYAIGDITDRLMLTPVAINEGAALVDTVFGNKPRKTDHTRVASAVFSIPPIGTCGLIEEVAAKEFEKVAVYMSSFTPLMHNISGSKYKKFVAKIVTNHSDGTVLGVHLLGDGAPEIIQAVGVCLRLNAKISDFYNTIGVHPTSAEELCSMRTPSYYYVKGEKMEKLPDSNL
The subject of assay [4] is Bloodstream form T. b. brucei cells (strain 427, 'single marker'). The following applies: cited from earlier work.
For assay [5], the system named is African trypanosomiasis. Also noted: method as in Halliburton and Fairlamb, unpublished. The settings on record: 50 mg kg^-1, i.p., acute mouse model; ref Halliburton and Fairlamb, unpublished; cited from earlier work.
The target in assay [6] is T2, TbTryR (recombinant T. b. brucei trypanothione reductase). The settings on record: 150 μM NADH as electron donor, 412 nm assay.
The target of a further assay is TbTryR (Trypanosoma brucei brucei, UniProt Q389T8). Briefly: Modified 412 nm DTNB-coupled assay with NADPH regeneration by glucose-6-phosphate dehydrogenase. In kind it is biochemical. The following applies: NADPH-regenerating system, 6 μM T(S)2. The protocol:
In order to determine Km with respect to NADPH using the 412 nm DTNB assay, NADPH levels were maintained constant using glucose-6-phosphate and glucose-6-phosphate dehydrogenase from Saccharomyces cerevisiae. […] The final assay mixture contained 40 mM HEPES pH 7.4, 1 mM EDTA, ∼10 mU ml^−1 TryR, 6 μM T(S)2, 50 μM DTNB and 0.2–200 μM NADPH (7-point 3-fold serial dilution). Assays were initiated by addition of the NADPH. Km values with respect to NADPH were determined for TbTryR in three independent experiments and a weighted mean calculated.

The test system of assay [7] is L. donovani trypanothione reductase. Also noted: method as in PMID 7607216. The following applies: read-out: Km T(S)2 (by NADPH oxidation); cited from earlier work.
For assay [8], the system named is Bloodstream form T. b. brucei cells (strain 427, 'single marker'). Briefly: Growth inhibition of bloodstream form T. b. brucei (resazurin). In kind it is cell-based. The settings on record: Trypanosoma brucei, 72 h, 3 days incubation, weighted mean of three experiments.
Procedure: Bloodstream form T. b. brucei cells (strain 427, ‘single marker’) were grown at 37 °C and 5% CO2 in a modified HMI9 [21] (HMI9-T where 0.2 mM 2-mercaptoethanol was replaced with 0.056 mM thioglycerol). Stock cultures were maintained in T75 vented cap culture flasks (Greiner, Kremsmuenster, Austria) and sub-cultured every 48–72 h by dilution into fresh medium. For microtitre plate assays, cells were counted using a Casy cell counter TT (Schärfe systems) and diluted appropriately. Compounds were tested in 96-well test plates (Greiner). The final conditions were 50–0.07 μM test compound (9-point 3-fold serial dilutions), 0.5% DMSO, 10^3 ml^−1 cells in a total volume of 0.2 ml. Plates were incubated for 3 days, resazurin was added to a final concentration of 45 μM and plates incubated for a further 4 h. Fluorescence was measured at 528 nm excitation and 590 nm emission. EC50 values were determined in three separate experiments and the data reported as weighted means.
For assay [9], the system named is African trypanosomiasis. Also noted: method as in PMID 3503414. The following applies: 50 mg kg^-1, i.p.; cited from earlier work.
Setting [10] is: ratio of IC50 values at respective S = Km.

Each structure is given as a SMILES string. Where two headings read alike, the source gives them in different places.

T1 sequence (P28593 whole entry): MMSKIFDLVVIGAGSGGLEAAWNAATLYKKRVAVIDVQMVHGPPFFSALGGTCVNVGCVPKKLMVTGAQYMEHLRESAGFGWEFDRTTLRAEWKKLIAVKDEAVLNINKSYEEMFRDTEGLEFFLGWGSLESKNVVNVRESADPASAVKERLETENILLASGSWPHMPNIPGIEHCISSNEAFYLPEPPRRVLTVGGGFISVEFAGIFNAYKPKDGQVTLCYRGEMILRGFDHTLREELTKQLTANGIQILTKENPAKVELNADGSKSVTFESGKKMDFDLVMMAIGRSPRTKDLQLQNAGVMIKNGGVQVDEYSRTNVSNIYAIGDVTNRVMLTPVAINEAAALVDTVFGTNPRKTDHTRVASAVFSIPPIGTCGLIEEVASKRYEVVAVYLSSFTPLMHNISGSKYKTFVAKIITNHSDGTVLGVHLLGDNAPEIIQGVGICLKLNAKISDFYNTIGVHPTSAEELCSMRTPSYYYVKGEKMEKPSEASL
Sequence of TbTryR (Q389T8 entry or part of it): as the sequence (Q389T8 entry or part of it) above

For the compound `CN(C)CCC(=O)c1cccc([N+](=O)[O-])c1` [DM6a], in assay [1] (setting [10]), the “Ratio Tc/Tb (IC50 TcTryR / IC50 TbTryR)” value is 1.2. For the same compound, the 50% inhibitory concentration (IC50) came out at 3.8 ± 0.2 µM in assay [2] and 3.2 ± 0.16 µM in [3]. Besides, the EC50 in assay [4] (ref Martyn et al. [19]) is 0.68 ± 0.1 µM.

As to `CN(C)CCC(=O)c1ccc(Cl)c(Cl)c1` [DM8a], in assay [1], the “Ratio Tc/Tb (IC50 TcTryR / IC50 TbTryR)” value is recorded as 2.5. The IC50 was found to be 7.99 ± 0.51 µM in assay [2] and 3.17 ± 0.17 µM in assay [3]. In [4] (ref Martyn et al. [19]), the EC50 was 1 ± 0.21 µM.

As to `CN(C)CCCN1c2ccccc2CCc2ccc(Cl)cc21` [Clomipramine], the “extension of survival time” value in the assay with African trypanosomiasis [5] is reported as “failed to extend survival time by even one day”.

Take `NC(=O)C1=CN([C@@H]2O[C@H](COP(=O)(O)OP(=O)(O)OC[C@H]3O[C@@H](n4cnc5c(N)ncnc54)[C@H](O)[C@@H]3O)[C@@H](O)[C@H]2O)C=CC1` [NADH]: the “Activity relative to that obtained with 150 μM NADPH” value in assay [6] is listed as 5.7%.

In the case of `NC(=O)C1=CN([C@@H]2O[C@H](COP(=O)(O)OP(=O)(O)OC[C@H]3O[C@@H](n4cnc5c(N)ncnc54)[C@H](OP(=O)(O)O)[C@@H]3O)[C@@H](O)[C@H]2O)C=CC1` [NADPH], the Km at TbTryR is 0.77 ± 0.01 µM.

In the case of `CN(C)CCC(=O)c1ccc(S(C)(=O)=O)cc1` [DM5a], in assay [1] (setting [10]), the “Ratio Tc/Tb (IC50 TcTryR / IC50 TbTryR)” value is on record as 2.5. Further, the IC50 is 16.9 ± 1.08 µM in [2] and 6.8 ± 0.42 µM in assay [3]. In assay [4] (ref Martyn et al. [19]), the EC50 is 0.55 ± 0.04 µM.

For the compound `N[C@@H](CCC(=O)N[C@H]1CSSC[C@H](NC(=O)CC[C@H](N)C(=O)O)C(=O)NCC(=O)NCCCNCCCCNC(=O)CNC1=O)C(=O)O` [T(S)2, trypanothione disulphide], in [7], the Km was 36 µM.

`CN(C)CCCC1(c2ccc(F)cc2)OCc2cc(C#N)ccc21` (centres unmarked) [Citalopram]: it took 6.59 ± 0.54 µM to reach a half-maximal effect in assay [8] (EC50). Also, in assay [1] (setting [10]), the “Ratio Tc/Tb (IC50 TcTryR / IC50 TbTryR)” value was 1.9. The 50% inhibitory concentration (IC50) in [2] was 154 ± 5.42 µM; in assay [3], 82.3 ± 6.35 µM.

For `CN1CCN(CCCN2c3ccccc3Sc3ccc(C(F)(F)F)cc32)CC1` [Trifluoperazine], in assay [8], the EC50 was found to be 2.11 ± 0.5 µM. The “activity in the chronic mouse model of African trypanosomiasis” value in the assay with African trypanosomiasis [9] was “inactive”. Besides, in assay [2], the half-inhibitory concentration (IC50) turned out to be 20.9 ± 0.9 µM.

`CCN(CC)CCCC(C)Nc1c2ccc(Cl)cc2nc2ccc(OC)cc12` (centres unmarked) [Quinacrine]: the “Ratio Tc/Tb (IC50 TcTryR / IC50 TbTryR)” value in [1] is 1.7. Moreover, the IC50 in assay [2] came to 37.8 ± 1.91 µM; in assay [3], 22.1 ± 2.05 µM.

With `CSc1ccc2c(c1)N(CCC1CCCCN1C)c1ccccc1S2` (centres unmarked) [Thioridazine], the “activity in the chronic mouse model of African trypanosomiasis” value with African trypanosomiasis [9] is “inactive”.

In the case of `O=c1c2ccccc2[se]n1-c1ccccc1` [Ebselen], the “Ratio Tc/Tb (IC50 TcTryR / IC50 TbTryR)” value in assay [1] (setting [10]) is 3.3. The 50% inhibitory concentration (IC50) turned out to be 0.6 ± 0.01 µM in assay [2] and 0.18 ± 0.01 µM in [3]. In addition, the EC50 in [4] (ref Richardson et al. [33]) was 2.97 µM.

As to `CC(C)(C)c1cc(CN(CCO)CCO)cc(C(C)(C)C)c1O` [DM7a], in [1] (setting [10]), the “Ratio Tc/Tb (IC50 TcTryR / IC50 TbTryR)” value was found to be 1.4. For the same compound, the figures for the IC50 in assay [2] and in assay [3] were 27.8 ± 2.08 µM and 19.2 ± 1.75 µM, respectively. Besides, the EC50 in [4] (ref Martyn et al. [19]) was 3.01 ± 0.3 µM.

The values above are taken from article PMC2789240, “Comparative structural, kinetic and inhibitor studies of Trypanosoma brucei trypanothione reductase with T. cruzi^” (Molecular and Biochemical Parasitology, 2010).
